Data published in patent EP4361137A1, “PRUNE1 INHIBITORS AND THERAPEUTIC USE THEREOF” (CEINGE Biotecnologie Avanzate Franco Salvatore s.c. a r.l., priority 2022, dated 2024).

What was measured:
[1] = test system: human and murine Prune1; assay: Immunoblotting of MATH1-Prune1/TP53-/- cells; assay type: cell-based; conditions: 10 µM, 24 hours
Procedure: Cells for immunoblotting analysis were washed in cold PBS and lysed in cell lysis buffer [20 mM sodium phosphate (pH 7.4), 150 mM NaCl, 10% (v/v) glycerol, 1% (w/v) sodium deoxycholate, 1% (v/v) Triton X-100] supplemented with protease inhibitors (Roche). The resulting cell lysates were cleared by centrifugation at 16,200g for 10 min at room temperature, and the supernatants were re- moved and assayed for protein concentrations with the Protein Assay Dye Reagent (Bio-Rad). The cell lysates (30 µg) were resolved by SDS-polyacrylamide gel electrophoresis (SDS-PAGE) gels of different percentages, which depended on the molecular weights of the proteins of interest. The proteins were then electrophoretically transferred to polyvinylidene difluoride (PVDF) membranes (Millipore). After 1 hour in blocking solution with 5% (w/v) dry milk fat in PBS or 5% (w/v) BSA (Sigma-Aldrich) in tris-buffered saline [both of which contained 0.02% (v/v) Tween 20] (TBS-Tween), the PVDF mem- branes were incubated with the required primary antibody overnight at 4°C: anti-PRUNE1 (1:250; Ferrucci et al., 2018), or anti- β-actin (1:10,000; A5441, Sigma-Aldrich). […] The peak areas of the bands were measured on the densitometry plots, and the relative proportions (percentages) were calculated. […]

[2] = test system: MATH1-Prune1/TP53-/- cells; assay: Real-time cell proliferation assay (cell index, xCELLigence); assay type: cell-based, murine; conditions: impedance every 2 min over 24 h
Procedure: Primary murine TNBC cells from tumors generated by MMTV-Prune1/Wnt1 mice [Ferrucci et al., 2021] and Primary murine Medulloblastoma Group 3 cells from tumors generated MATH-Prune1/TP53-/- mice were obtained (2 months from tumor onset).
Cellular proliferation rates were determined with the xCELLigence system (Roche). D425-MED, MATH-Prune1/TP53-/- and MMTV-Prune1/Wnt1 cells (8 × 10^3) were treated with increasing concentrations of LEO-AA7.5(S)T, harvested, and then added to a single well of an xCELLigence E-plate 16. The proliferation rates were determined at 2-min intervals by measuring the impedance changes across the electrodes at the bottoms of the wells. These cell index values were calculated by the xCELLigence RTCA software. with vehicle-treated cells were the negative control. Impedance was measured every 2 min over 24 hours. The IC50 values were calculated through nonlinear regression analysis performed with Graph Pad Prism 9 ([inhibitor] vs. response (three parameters). Data are means ± SD of three independent experiments.

[3] = test system: human PRUNE1; assay: qPCR of PRUNE1 mRNA in MATH1-Prune1/TP53-/- cells; assay type: cell-based; conditions: 10 µM, 24 hours, relative to vehicle
Procedure: (§1) RNA samples were extracted using TRIzol RNA Isolation Reagent (15596026, Invitrogen), according to the manufacturer instructions. Reverse transcription was performed with 5× All-In-One RT MasterMix (g592; ABM), according to the manufacturer instructions. The reverse transcription products (cDNA) were amplified by qRT-PCR using an RT-PCR system (7900; Applied Biosystems, Foster City, CA, USA). The cDNA preparation was through the cycling method, by incubating the complete reaction mix as follows: cDNA reactions: (37 °C for 10 min and 60 °C for 15 min); Heat-inactivation: 95 °C for 3 min; Hold stage: 4 °C. The targets were detected with the SYBR green approach, using BrightGreen BlasTaq 2× PCR MasterMix (G895; ABM). Human ACTB was used as the housekeeping gene to normalize the quantification cycle (Cq) values of the other genes. These runs were performed on a PCR machine (Quantstudio5, Lifetechnologies) with the following thermal protocol: Hold stage: 50 °C for 2 min; Denaturation Step: 95 °C for 10 min; Denaturation and annealing (×45 cycles): 95 °C for 15 s and 60 °C for 60 s; Melt curve stage: 95 °C for 15 s, 60 °C for 1 min, and 95 °C for 15 s. Relative expression of the target genes was determined using the 2^-ΔΔCq method, as the fold increase compared with the controls. The data are presented as means ±SD of the 2^-ΔΔCq values (normalized to human ACTB) of three replicates.

[4] = test system: murine PRUNE1; assay: qPCR of PRUNE1 mRNA in MATH1-Prune1/TP53-/- cells; assay type: cell-based; conditions: 10 µM, 24 hours, relative to vehicle
Procedure: as §1

[5] = test system: J774A.1 macrophages; assay: M2-polarization of macrophages grown in conditioned media (qPCR); assay type: cell-based, murine; conditions: macrophages 48 h in conditioned media of MMTV-Prune1-Wnt1 cells treated with 10 µM
Procedure: The effects of MMTV-Prune-1/Wnt1 cells upon treatment with LEO-AA7.5(S)T were analyzed for M2-polarization of J774A. 1 murine macrophages. Briefly 1 ×10^6 MMTV-Prune-1/Wnt1 cells were resuspended in 10 mL complete DMEM medium, plated into 10-cm-diameter plates, treated with 10 µM LEO-AA7.5(S)T or water as vehicle control, and grown at 37 °C for 24 h. Then the conditioned media were collected. One day before culture in the conditioned media, J774A.1 macrophages were plated into 10-cm-diameter plates. At the time of the culturing in conditioned media, macrophages were at 50% confluence, and after 6 h of starvation in serum-free medium, the macrophages were grown in conditioned media for 48 h. Each experimental point was carried out in triplicate. After the culturing in the conditioned media, the macrophages were washed with PBS, collected, and used for RNA extraction.
RNA samples were extracted using TRIzol RNA Isolation Reagent (15596026, Invitrogen), according to the manufacturer instructions. […] The targets were detected with the SYBR green approach, using BrightGreen BlasTaq 2× PCR MasterMix (G895; ABM). Human ACTB was used as the housekeeping gene to normalize the quantification cycle (Cq) values of the other genes. […] Relative expression of the target genes was determined using the 2^-ΔΔCq method, as the fold increase compared with the controls. […]

[6] = test system: inflammatory cytokines targeted by IMIDs drugs; assay: qPCR of inflammatory cytokines in MATH1-Prune1/TP53-/- cells; assay type: cell-based, murine; conditions: 10 µM, 24 hours
Procedure: as §1

[7] = test system: CCL2; assay: ELISA of CCL2 in sera of implanted mice; assay type: in vivo, FVB WT mice; conditions: 6 mg/kg/day intraperitoneally for seven days; n.5 per group
Procedure: ELISA assay ([…]) was performed by following the manufacturer instruction, to measure the levels of CCL2 cytokine in the sera from immunocompetent syngeneic mice orthotopically implanted with MATH1-Prune1/ TP53-/- cells and treated intraperitoneally for seven days with LEO-AA7.5(S)T (n.5) at 6 mg/kg/day, or with water (n.5) as the vehicle control group.

For `COc1ccc(CNc2ncnc(N3CCC[C@H](CO)C3)n2)cc1.Cl` [LEO-AA7.5(S)T, (S)-(1-(4-((4-methoxybenzyl)amino)-1,3,5-triazin-2-yl)piperidin-3-yl)methanol HCl salt], the “human and murine Prune1 levels (immunoblotting)” value [1] was “reduced human and murine Prune1 levels”, the “nuclear phosphorylated SMAD2 and OTX2 (immunoblotting)” value [1] was “inhibition” and the “half maximal inhibitory concentration (IC50) for the inhibition of cell proliferation index” value [2] was 31.1 µM. The “human endogenous Prune1 mRNA” value [3] was 0.15 fold, the “murine endogenous Prune1 mRNA” value [4] was 0.4 fold and the “levels of M2-polarized marker genes in macrophages” value [5] was “decreased levels”. The “levels of inflammatory cytokines targeted by IMIDs drugs (qPCR)” value [6] was “decreased levels” and the “sera circulating CCL2” value [7] was “decreased levels”.
